According to patent publication US11685726B2, “Pharmaceutical compositions of 6-(2-(2H-tetrazol-5-yl)ethyl)-6-fluorodecahydroisoquinoline-3-carboxylic acid and ester derivatives thereof” (Sea Pharmaceuticals LLC, priority 2020, dated 2023):

Columns and labels:
[1] = LCMS bioanalysis of compound levels in rat samples (plasma, CSF, brain) after administration; format: in vivo; conditions: lower limit of quantification 1 ng/ml
Source text: Measurement of Compound 1 or Compound 2 from rat samples (plasma, cerebral spinal fluid “CSF” or brain homogenate) was done by high resolution using a sensitive LCMS method.
Extracts of biological samples (either organic solvent precipitated or organic solvent extracted i. plasma or ii. CSF or iii. homogenates of whole brains from Compound 1 or Compound 2 treated rats) were subjected to LCMS and were compared to freshly prepared standard curves on exactly the same LCMS instrument. The standard curves were prepared of Compound 1 or Compound 2 at known concentrations dispensed (spiked) into rat plasma (supplied by Bioivt formerly Bioreclamation, Cat. No. RAT00PLK2Y2N, Bioivt, Hicksville N.Y. USA) as Sprague Dawley male rat plasma prepared by collection of blood into potassium-EDTA “K2-EDTA” tubes, centrifuged and stored at −80 C until usage). […] The lower limit of quantification of Compound 1 or Compound 2 based on the conditions used was 1 ng/ml and the standard curve was linear to 5,000 ng/ml. […]
Acute administration of test compound 1 or test compound 2 by routes described (either PO, SC or IV) was done to rats and samples collected at the timepoints described for subsequent extraction, dissolution and quantitative LCMS bioanalysis. […]

[2] = In vitro stability in physiological buffers with or without fatty acid free BSA; format: physicochemical; conditions: 30 minutes at 37 degrees C

- compound levels in vivo by LCMS [1]: below limit of detection
- stability in physiological buffers [2]: stable
SMILES: O=C(O)[C@@H]1C[C@H]2CC(F)(CCc3nnn[nH]3)CC[C@H]2CN1 (stereo in doubt) [Compound 2, (3S,4aS,6R,8aR)-6-fluoro-6-[2-(1H-1,2,3,4-tetrazol-5-yl)ethyl]-decahydroisoquinoline-3-carboxylic acid]
